Measured values reported in patent US20240000872A1, “NOVEL BACTERIOPHAGE THAT LYSES ACINETOBACTER GENUS BACTERIA HAVING RESISTANCE TO ANTIBIOTICS” (priority 2020, published 2024).

Test system: Acinetobacter baumannii strains
Assay: Antibiotic susceptibility test (CLSI disk diffusion test method, read per CLSI 2016)
Format: cell-based
Protocol: Strain identification was performed using a kit such as AT 32 GN system (bioMérieux, Marcy l'Etoile, France). […] In Table 2 below, S, I, and R are the results obtained by evaluating susceptibility to the antibacterial agents, in which ‘S’ means susceptible, ‘I’ means intermediate, and ‘R’ means resistant.
Strain identification was performed using a kit such as ATB 32 GN system (bioMédrieux, Marcy l'Etoile, France). […] In Table 6 below, S, I, and R are the results obtained by evaluating susceptibility to the antibacterial agents, in which ‘S’ means susceptible, ‘I’ means intermediate, and ‘R’ means resistant.
Strain identification was performed using a kit such as ATB 32 GN system (bioMérieux, Marcy l'Etoile, France). […] In Table 10 below, S, I, and R are the results obtained by evaluating susceptibility to the antibacterial agents, in which ‘S’ means susceptible, T means intermediate, and ‘R’ means resistant.

## C[C@@H](O)[C@H]1C(=O)N2C(C(=O)O)=C(S[C@@H]3CN[C@H](C(=O)N(C)C)C3)[C@H](C)[C@H]12 [Meropenem, meropenem]
Host strain YMC14/01/C29
  antibiotic susceptibility class: R
Host strain YMC14/01/IP122
  antibiotic susceptibility class: R
Host strain YMC14/01/L8
  antibiotic susceptibility class: R
Host strain YMC14/01/P31
  antibiotic susceptibility class: R
Host strain YMC14/01/P117
  antibiotic susceptibility class: R
Host strain YMC14/01/P224
  antibiotic susceptibility class: R
Host strain YMC14/01/P727
  antibiotic susceptibility class: R
Host strain YMC14/01/P728
  antibiotic susceptibility class: R
Host strain YMC14/01/R130
  antibiotic susceptibility class: R
Host strain YMC14/01/R160
  antibiotic susceptibility class: R
Host strain YMC14/01/R198
  antibiotic susceptibility class: R
Host strain YMC14/01/R257
  antibiotic susceptibility class: R
Host strain YMC14/01/R270
  antibiotic susceptibility class: R
Host strain YMC14/01/R324
  antibiotic susceptibility class: R
Host strain YMC14/01/R443
  antibiotic susceptibility class: R
Host strain YMC14/01/R451
  antibiotic susceptibility class: R
Host strain YMC14/01/R560
  antibiotic susceptibility class: R
Host strain YMC14/01/R617
  antibiotic susceptibility class: R
Host strain YMC14/01/R671
  antibiotic susceptibility class: R
Host strain YMC14/01/R732
  antibiotic susceptibility class: R
Host strain YMC14/01/R767
  antibiotic susceptibility class: R
Host strain YMC14/01/R904
  antibiotic susceptibility class: R
Host strain YMC14/01/R905
  antibiotic susceptibility class: R
Host strain YMC14/01/R921
  antibiotic susceptibility class: R
Host strain YMC14/01/R941
  antibiotic susceptibility class: R
Host strain YMC14/01/R958
  antibiotic susceptibility class: R
Host strain YMC14/01/R1006
  antibiotic susceptibility class: R
Host strain YMC14/01/R1199
  antibiotic susceptibility class: R
Host strain YMC14/01/R1659
  antibiotic susceptibility class: R
Host strain YMC14/01/R1722
  antibiotic susceptibility class: R
Host strain YMC14/01/R1752
  antibiotic susceptibility class: R
Host strain YMC14/01/R2429
  antibiotic susceptibility class: R
Host strain YMC14/01/R2572
  antibiotic susceptibility class: R
Host strain YMC14/01/R2855
  antibiotic susceptibility class: R
Host strain YMC14/01/R2945
  antibiotic susceptibility class: R
Host strain YMC14/01/R3007
  antibiotic susceptibility class: R
Host strain YMC14/01/R3129
  antibiotic susceptibility class: R
Host strain YMC14/01/R3317
  antibiotic susceptibility class: R
Host strain YMC14/01/R3474
  antibiotic susceptibility class: R
Host strain YMC14/01/R3574
  antibiotic susceptibility class: R
Host strain YMC14/01/U313
  antibiotic susceptibility class: R
Host strain YMC14/01/U318
  antibiotic susceptibility class: R
Host strain YMC14/02/L18
  antibiotic susceptibility class: R
Host strain YMC14/02/P47
  antibiotic susceptibility class: R
Host strain YMC14/02/R1860
  antibiotic susceptibility class: R
Host strain YMC14/02/R2417
  antibiotic susceptibility class: R
Host strain YMC14/02/R2599
  antibiotic susceptibility class: R
Host strain YMC14/02/R2668
  antibiotic susceptibility class: R
Host strain YMC14/02/R2758
  antibiotic susceptibility class: R
Host strain YMC14/02/R2781
  antibiotic susceptibility class: R
Host strain YMC14/02/R3106
  antibiotic susceptibility class: R
Host strain YMC14/02/R3419
  antibiotic susceptibility class: R
Host strain YMC14/02/U1607
  antibiotic susceptibility class: R
Host strain YMC14/03/L9
  antibiotic susceptibility class: R
Host strain YMC14/03/P471
  antibiotic susceptibility class: R
Host strain YMC14/03/R122
  antibiotic susceptibility class: R
Host strain YMC14/03/R217
  antibiotic susceptibility class: R
Host strain YMC14/03/R380
  antibiotic susceptibility class: R
Host strain YMC14/03/R618
  antibiotic susceptibility class: R
Host strain YMC14/03/R2144
  antibiotic susceptibility class: R
Host strain YMC14/03/U4616
  antibiotic susceptibility class: R
Host strain YMC14/04/R1078
  antibiotic susceptibility class: R
Host strain YMC14/04/R1080
  antibiotic susceptibility class: R
Host strain YMC14/06/R2359
  antibiotic susceptibility S/I/R: R
  susceptibility category (S/I/R): R
Host strain YMC14/08/R1169
  antibiotic susceptibility S/I/R: R
  susceptibility category (S/I/R): R
Host strain YMC14/08/T90
  antibiotic susceptibility S/I/R: R
  susceptibility category (S/I/R): R
Host strain YMC15/02/R436
  antibiotic susceptibility S/I/R: R
  susceptibility category (S/I/R): R
Host strain YMC15/02/T28
  antibiotic susceptibility S/I/R: R
  susceptibility category (S/I/R): R
Host strain YMC15/03/R1604
  antibiotic susceptibility S/I/R: R
  susceptibility category (S/I/R): R
Host strain YMC15/09/R1869
  antibiotic susceptibility S/I/R: R
  susceptibility category (S/I/R): R
Host strain YMC16/01/P11
  antibiotic susceptibility S/I/R: R
  susceptibility category (S/I/R): R
Host strain YMC16/01/R123
  antibiotic susceptibility S/I/R: R
  susceptibility category (S/I/R): R
Host strain YMC16/01/R198
  antibiotic susceptibility S/I/R: R
  susceptibility category (S/I/R): R
Host strain YMC16/01/R353
  antibiotic susceptibility S/I/R: R
  susceptibility category (S/I/R): R
Host strain YMC16/01/R380
  antibiotic susceptibility S/I/R: R
  susceptibility category (S/I/R): R
Host strain YMC16/01/R397
  antibiotic susceptibility S/I/R: R
  susceptibility category (S/I/R): R
Host strain YMC16/01/R405
  antibiotic susceptibility S/I/R: R
  susceptibility category (S/I/R): R
Host strain YMC16/03/R4461
  antibiotic susceptibility S/I/R: R
  susceptibility category (S/I/R): R
Host strain YMC16/05/R2210
  antibiotic susceptibility S/I/R: R
  susceptibility category (S/I/R): R
Host strain YMC16/07/R2512
  antibiotic susceptibility S/I/R: R
  susceptibility category (S/I/R): R
Host strain YMC16/09/R2471
  antibiotic susceptibility S/I/R: R
  susceptibility category (S/I/R): R
Host strain YMC16/10/R2537
  antibiotic susceptibility S/I/R: R
  susceptibility category (S/I/R): R
Host strain YMC16/12/B11422
  antibiotic susceptibility S/I/R: R
  susceptibility category (S/I/R): R
Host strain YMC16/12/B11449
  antibiotic susceptibility S/I/R: R
  susceptibility category (S/I/R): R
Host strain YMC16/12/B13325
  antibiotic susceptibility S/I/R: R
  susceptibility category (S/I/R): R
Host strain YMC16/12/P503
  antibiotic susceptibility S/I/R: R
  susceptibility category (S/I/R): R
Host strain YMC16/12/R4637
  antibiotic susceptibility S/I/R: R
  susceptibility category (S/I/R): R
Host strain YMC17/01/B8053
  antibiotic susceptibility S/I/R: R
  susceptibility category (S/I/R): R
Host strain YMC17/01/B10087
  antibiotic susceptibility S/I/R: R
  susceptibility category (S/I/R): R
Host strain YMC17/01/B12075
  antibiotic susceptibility S/I/R: R
  susceptibility category (S/I/R): R
Host strain YMC17/01/B13454
  antibiotic susceptibility S/I/R: R
  susceptibility category (S/I/R): R
Host strain YMC17/01/P518
  antibiotic susceptibility S/I/R: R
  susceptibility category (S/I/R): R
Host strain YMC17/01/R2812
  antibiotic susceptibility S/I/R: R
  susceptibility category (S/I/R): R
Host strain YMC17/02/B14
  antibiotic susceptibility S/I/R: R
  susceptibility category (S/I/R): R
Host strain YMC17/02/B87
  antibiotic susceptibility S/I/R: R
  susceptibility category (S/I/R): R
Host strain YMC17/02/B721
  antibiotic susceptibility S/I/R: R
  susceptibility category (S/I/R): R
Host strain YMC17/02/B4039
  antibiotic susceptibility S/I/R: R
  susceptibility category (S/I/R): R
Host strain YMC17/02/B4520
  antibiotic susceptibility S/I/R: R
  susceptibility category (S/I/R): R
Host strain YMC17/02/B4864
  antibiotic susceptibility S/I/R: S
  susceptibility category (S/I/R): S
Host strain YMC17/02/B8414
  antibiotic susceptibility S/I/R: R
  susceptibility category (S/I/R): R
Host strain YMC17/02/P523
  antibiotic susceptibility S/I/R: R
  susceptibility category (S/I/R): R
Host strain YMC17/02/R541
  antibiotic susceptibility S/I/R: R
  susceptibility category (S/I/R): R
Host strain YMC17/02/R2392
  antibiotic susceptibility S/I/R: R
  susceptibility category (S/I/R): R
Host strain YMC17/03/B4730
  antibiotic susceptibility S/I/R: R
  susceptibility category (S/I/R): R
Host strain YMC17/03/B5000
  antibiotic susceptibility S/I/R: R
  susceptibility category (S/I/R): R
Host strain YMC17/03/P971
  antibiotic susceptibility S/I/R: R
  susceptibility category (S/I/R): R
Host strain YMC17/03/R348
  antibiotic susceptibility S/I/R: R
  susceptibility category (S/I/R): R
Host strain YMC17/03/R585
  antibiotic susceptibility S/I/R: R
  susceptibility category (S/I/R): R
Host strain YMC17/03/R1888
  antibiotic susceptibility S/I/R: R
  susceptibility category (S/I/R): R
Host strain YMC17/03/R3279
  antibiotic susceptibility S/I/R: R
  susceptibility category (S/I/R): R
Host strain YMC17/03/R4077
  antibiotic susceptibility S/I/R: R
  susceptibility category (S/I/R): R
Host strain YMC17/03/R4607
  antibiotic susceptibility S/I/R: R
  susceptibility category (S/I/R): R
Host strain YMC17/04/R488
  antibiotic susceptibility S/I/R: R
  susceptibility category (S/I/R): R
Host strain YMC17/04/R640
  antibiotic susceptibility S/I/R: R
  susceptibility category (S/I/R): R
Host strain YMC/17/05/R1095
  antibiotic susceptibility S/I/R: R
  susceptibility category (S/I/R): R
